In US20040166058A1, “Ethylenedicysteine (EC)-drug conjugates, compositions and methods for tissue specific disease imaging” (Board of Regents, The University of Texas System, priority 2002, published 2004):
Each block holds one molecule with its values, some of them ahead of it. Ends that are not written are not given here.

Tests used:
[1] = Cell culture uptake of Re-188 versus Tc-99m labeled EC-agents; assay type: cell-based
Method: To develop EC-DG in a kit form, EC-DG (10 mg) dissolved in 0.2 ml of water was freeze dried with tin chloride (2 mg in 0.2 ml of water) and gluconate (3 mg) in a 10 ml medi-vial and stored at room temperature prior to labeling. During labeling, the freeze dried powder was reconstituted in saline (0.5 ml) and pertechnate (10 mCi) was added. The kit was heated at 55° C. for 30 min (or 75° C. for 15 min). Radiochemical purity of ^99mTc-EC-DG was greater than 95% as determined by radio-TLC (saline, Rf: 0.8)(FIG. 39). A similar method could be applied to other EC-agents such as EC-metronidazole (EC-MN)(FIG. 40) and EC-penciclovir (also known as EC-Guan).

[2] = system: RBA CRL-1747 (breast cancer cells); experiment: In vitro cellular uptake in breast cancer cells; assay type: cell-based; conditions: 0.5-2 hrs, 50,000 cells/well
From the text: There was more uptake in ^99mTc-EC-carnitine than ^99mTc-EC (FIG. 16).

[3] = system: RBA CRL-1747 mammary tumor; experiment: Biodistribution in mammary (breast) tumor-bearing rats; assay type: in vivo; conditions: iv
Method: (§1) Biodistribution was assessed in mammary tumor-bearing rats (RBA CRL-1747, n=3/time interval, iv). Studies were performed 14 to 17 days after implantation when tumors reached approximately 1 cm in diameter. Following administration of the radiotracer, rats were sacrificed at 0.5-4 hrs. The selected tissues were excised, weighed and counted for radioactivity by using a gamma counter (Packard Instruments, Downers Grove, Ill.). The biodistribution of tracer in each sample was calculated as percentage of the injected dose per gram of tissue wet weight (% ID/g).
as §1, with “breast” for “mammary”

[4] = system: human ovarian cancer cells; conditions: 4-6 μCi/50,000 cells/well, 0.5-2 hrs
mammary tumor = experiment: Scintigraphic imaging in mammary (breast) tumor-bearing rats; assay type: in vivo; conditions: 0.1-4 hrs, 0.1 mCi/rat, iv
Method: Scintigraphic imaging studies was performed in mammary tumor-bearing rats at 0.5-4 hrs (0.3 mCi/rat, n=3, iv). Control group was administered ^99mTc-EC. Computer-outlined region of interest was used to determine tumor uptake (counts/pixel) and tumor/nontumor count density ratios.
Scintigraphic imaging studies was performed in mammary tumor-bearing rats at 0.5-4 hrs (0.3 mCi/rat, n=3, iv). Control group was administered ^99mTc-EC.
Scintigraphic imaging studies was performed in mammary tumor-bearing rats at 0.5-4 hrs (0.1 mCi/rat, n=3, iv). Control group was administered ^99mTc-EC.
Scintigraphic imaging studies was performed in breast tumor-bearing rats at 0.5-4 hrs (0.1 mCi/rat, n=3, iv). Control group was administered ^99mTc-EC.
Scintigraphic imaging studies was performed in breast tumor-bearing rats at 0.1-4 hrs (0.1 mCi/rat, n=3, iv). Control group was administered ^99mTc-EC.

[5] = system: human ovarian and uterine cancer cells; experiment: In vitro cellular uptake in human ovarian and uterine cancer cells; assay type: cell-based; conditions: 4-6 μCi/50,000 cells/well, 0.5-2 hrs
Method: An in vitro cell culture using tumor cells was incubated with ^99mTc-EC-penciclovir (4-6 μCi/50,000 cells/well) at 0.5-2 hrs in human ovarian and uterine cancer cells.

[6] = system: human prostate cancer cells (LNCap, PC-3); experiment: In vitro cellular uptake in human prostate cancer cells; assay type: cell-based; conditions: 4-6 μCi/100,000 cells/well, 0.5-2 hrs, LNCap and PC-3
Method: An in vitro cell culture using tumor cells was incubated with ^99mTc-EC-LHRH (4-6 μCi/100,000 cells/well) at 0.5-2 hrs in human prostate cancer cells. Two types cell lines were used. They are either sensitive to androgen (LNCap) or unresponsive to androgen (PC-3) therapy.

[7] = system: RBA CRL-1747 breast cancer cells; experiment: In vitro blocking study of ^99mTc-EC-angiostatin uptake with unlabeled angiostatin; assay type: cell-based; conditions: unlabeled angiostatin 0-200 μM, 0.5-2 hrs, R^2=0.998; read-out: IC-50 of angiostatin (inhibition of ^99mTc-EC-angiostatin uptake)
Method: The IC-50 of angiostatin was 176 μM (R^2=0.998) (FIG. 3).

Molecule: Nc1nc2c(ncn2CCC(CO)CNC(=O)[C@H](CS)NCCN[C@@H](CS)C(=O)NCC(CO)CCn2cnc3c(=O)[nH]c(N)nc32)c(=O)[nH]1 (stereo partly drawn) [EC-Guan]
uptakes of Re-188 versus Tc-99m labeled agent [1]: no marked difference between uptakes

BONE/MUSCLE ([3]; 30 min): 2.419 ± 0.225
Tumor/Blood ([3]; 30 min): 0.255 ± 0.022
Tumor/Muscle ([3]; 30 min): 4.375 ± 0.304
UTERUS/BLOOD ([3]; 30 min): 0.259 ± 0.003
UTERUS/MUSCLE ([3]; 30 min): 4.471 ± 0.257
BONE/MUSCLE ([3]; 2 h): 3.058 ± 0.114
Tumor/Blood ([3]; 2 h): 0.307 ± 0.018
Tumor/Muscle ([3]; 2 h): 6.876 ± 0.704
UTERUS/BLOOD ([3]; 2 h): 0.240 ± 0.021
UTERUS/MUSCLE ([3]; 2 h): 5.442 ± 0.852
BONE/MUSCLE ([3]; 4 h): 4.314 ± 0.739
Tumor/Blood ([3]; 4 h): 0.395 ± 0.014
Tumor/Muscle ([3]; 4 h): 9.715 ± 0.387
UTERUS/BLOOD ([3]; 4 h): 0.255 ± 0.005
UTERUS/MUSCLE ([3]; 4 h): 6.278 ± 0.199
Molecule: Cc1ccc(-c2cc(C(F)(F)F)nn2-c2ccc(S(=O)(=O)NC(=O)NCC(=O)NCCNC(=O)C3C[S][99Tc]45(=[O])[S]CC(C(=O)O)[N]4CC[N]35)cc2)cc1 (stereo not drawn) [^99mTc-EC-COX-2]
cellular uptake compared to ^99mTc-EC [2]: significant increase in uptake
tumor-to-tissue count density ratios compared to ^99mTc-EC ([3]; 0.5-4 hrs): increased tumor-to-tissue count density ratios as a function of time
Biodistribution BONE & JOINT ([3]; 30 min): 0.324 ± 0.036 % of injected dose per gram of tissue weight
Biodistribution Blood ([3]; 30 min): 2.293 ± 0.038 % of injected dose per gram of tissue weight
Biodistribution Heart ([3]; 30 min): 0.475 ± 0.025 % of injected dose per gram of tissue weight
Biodistribution Intestine ([3]; 30 min): 0.406 ± 0.039 % of injected dose per gram of tissue weight
Biodistribution Kidney ([3]; 30 min): 4.963 ± 0.147 % of injected dose per gram of tissue weight
Biodistribution Liver ([3]; 30 min): 1.556 ± 0.046 % of injected dose per gram of tissue weight
Biodistribution Lung ([3]; 30 min): 1.033 ± 0.035 % of injected dose per gram of tissue weight
Biodistribution Muscle ([3]; 30 min): 0.133 ± 0.007 % of injected dose per gram of tissue weight
Biodistribution Spleen ([3]; 30 min): 0.594 ± 0.298 % of injected dose per gram of tissue weight
Biodistribution Stomach ([3]; 30 min): 0.370 ± 0.010 % of injected dose per gram of tissue weight
Biodistribution Thyroid ([3]; 30 min): 0.784 ± 0.090 % of injected dose per gram of tissue weight
Biodistribution Tumor ([3]; 30 min): 0.587 ± 0.062 % of injected dose per gram of tissue weight
Biodistribution UTERUS ([3]; 30 min): 0.595 ± 0.003 % of injected dose per gram of tissue weight
Biodistribution BONE & JOINT ([3]; 2 h): 0.190 ± 0.003 % of injected dose per gram of tissue weight
Biodistribution Blood ([3]; 2 h): 1.388 ± 0.063 % of injected dose per gram of tissue weight
Biodistribution Heart ([3]; 2 h): 0.283 ± 0.017 % of injected dose per gram of tissue weight
Biodistribution Intestine ([3]; 2 h): 0.276 ± 0.061 % of injected dose per gram of tissue weight
Biodistribution Kidney ([3]; 2 h): 6.088 ± 0.305 % of injected dose per gram of tissue weight
Biodistribution Liver ([3]; 2 h): 1.461 ± 0.049 % of injected dose per gram of tissue weight
Biodistribution Lung ([3]; 2 h): 0.712 ± 0.098 % of injected dose per gram of tissue weight
Biodistribution Muscle ([3]; 2 h): 0.062 ± 0.003 % of injected dose per gram of tissue weight
Biodistribution Spleen ([3]; 2 h): 0.965 ± 0.056 % of injected dose per gram of tissue weight
Biodistribution Stomach ([3]; 2 h): 0.187 ± 0.004 % of injected dose per gram of tissue weight
Biodistribution Thyroid ([3]; 2 h): 0.449 ± 0.015 % of injected dose per gram of tissue weight
Biodistribution Tumor ([3]; 2 h): 0.424 ± 0.019 % of injected dose per gram of tissue weight
Biodistribution UTERUS ([3]; 2 h): 0.334 ± 0.034 % of injected dose per gram of tissue weight
Biodistribution BONE & JOINT ([3]; 4 h): 0.178 ± 0.022 % of injected dose per gram of tissue weight
Biodistribution Blood ([3]; 4 h): 1.031 ± 0.033 % of injected dose per gram of tissue weight
Biodistribution Heart ([3]; 4 h): 0.224 ± 0.004 % of injected dose per gram of tissue weight
Biodistribution Intestine ([3]; 4 h): 0.190 ± 0.006 % of injected dose per gram of tissue weight
Biodistribution Kidney ([3]; 4 h): 6.363 ± 0.260 % of injected dose per gram of tissue weight
Biodistribution Liver ([3]; 4 h): 1.506 ± 0.080 % of injected dose per gram of tissue weight
Biodistribution Lung ([3]; 4 h): 0.500 ± 0.011 % of injected dose per gram of tissue weight
Biodistribution Muscle ([3]; 4 h): 0.002 ± 0.004 % of injected dose per gram of tissue weight
Biodistribution Spleen ([3]; 4 h): 0.981 ± 0.041 % of injected dose per gram of tissue weight
Biodistribution Stomach ([3]; 4 h): 0.139 ± 0.004 % of injected dose per gram of tissue weight
Biodistribution Thyroid ([3]; 4 h): 0.372 ± 0.021 % of injected dose per gram of tissue weight
Biodistribution Tumor ([3]; 4 h): 0.406 ± 0.004 % of injected dose per gram of tissue weight
Biodistribution UTERUS ([3]; 4 h): 0.263 ± 0.005 % of injected dose per gram of tissue weight

Molecule: CN(C)c1ncnc2c1ncn2C1OC(CO)C(NC(=O)C2C[S][99Tc]34(=[O])[S]CC(C(=O)O)[N]3CC[N]24)C1O (stereo not drawn) [^99mTc-EC-adenosine]
cellular uptake compared to ^99mTc-EC [4]: significant increased uptake

Molecule: C[N+](C)(C)CCCCC(NC(=O)C1C[S][99Tc]23(=[O])[S]CC(C(=O)NC(CCCC[N+](C)(C)C)C(=O)[O-])[N]2CC[N]13)C(=O)[O-] (stereo not drawn) [^99mTc-EC-carnitine]
cellular uptake compared to ^99mTc-EC [2]: more uptake
count density ratios tumor/muscle and heart/muscle (mammary tumor): High count density ratios

Molecule: Nc1nc2c(ncn2CCC(CO)CNC(=O)C2C[S][99Tc]34(=[O])[S]CC(C(=O)NCC(CO)CCn5cnc6c(=O)[nH]c(N)nc65)[N]3CC[N]24)c(=O)[nH]1 (stereo not drawn) [^99mTc-EC-penciclovir]
cellular uptake compared to ^99mTc-EC [5]: significant increased uptake

Molecule: ^99mTc-EC-LHRH (QHWSYGLRPG; also: 99mTc-ethylenedicysteine (EC) label, attachment site not given here; UniProt P01148 24-33, looked up)
cellular uptake compared to ^99mTc-EC [6]: significant increased uptake

IC50 [7]: 176 µM
Molecule: angiostatin
